Data from patent US10106556B2, “Heterocyclic compound” (TAKEDA PHARMACEUTICAL COMPANY LIMITED, priority 2015, dated 2018).

Molecular target: T1, His-hMAGL (recombinant polyhistidine tagged human MAGL protein) (Homo sapiens, UniProt Q99685)
T1 construct: made in house; host or cells: E. coli BL21(DE3)
T1 sequence (Q99685 1-303): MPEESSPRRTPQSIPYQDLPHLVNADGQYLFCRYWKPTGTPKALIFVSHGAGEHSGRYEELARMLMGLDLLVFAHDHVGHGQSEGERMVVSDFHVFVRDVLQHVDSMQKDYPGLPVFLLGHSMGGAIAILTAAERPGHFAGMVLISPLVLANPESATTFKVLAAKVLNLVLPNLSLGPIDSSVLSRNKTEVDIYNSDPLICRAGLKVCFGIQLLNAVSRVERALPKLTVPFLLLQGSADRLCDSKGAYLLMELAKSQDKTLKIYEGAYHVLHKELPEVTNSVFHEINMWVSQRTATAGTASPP
Assay: Measurement of MAGL inhibitory activity (arachidonic acid production from 2-arachidonylglycerol, RapidFire-mass spectrometry)
Format: biochemical
Conditions: MAGL inhibitory rate at 10 μM test compound, 60 min preincubation with His-hMAGL, 2-arachidonylglycerol substrate, 10 min reaction at room temperature
Method in brief: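 Recombinant His-tagged human MAGL converted 2-arachidonylglycerol to arachidonic acid. Reactions received acetonitrile with 3 μM arachidonic acid-d8 as internal standard, and product was quantified by RapidFire SPE (C4) with negative-mode SRM mass spectrometry. Percent inhibition was calculated against compound-free and enzyme-free controls.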

inhibition at 10 µM [%]	% inhibition (10 μM) (10 µM) [%]	SMILES
101	–	O=C1COc2cc(F)c(C(=O)N3CC(OCc4ccc(C(F)(F)F)cc4F)C3)cc2N1 [Example 345, 7-fluoro-6-((3-((2-fluoro-4-(trifluoromethyl)benzyl)oxy)azetidin-1-yl)carbonyl)-2H-1,4-benzoxazin-3(4H)-one]
–	100	CC(Oc1cc(F)ccc1F)C1CN(C(=O)c2cc3c(cc2F)OCC(=O)N3)C1 (centres unmarked) [Example 320, 6-((3-(1-(2,5-difluorophenoxy)ethyl)azetidin-1-yl)carbonyl)-7-fluoro-2H-1,4-benzoxazin-3(4H)-one]
101	–	O=C1COc2cc(F)c(C(=O)N3CC(OCc4ccc(C(F)F)cc4F)C3)cc2N1 [Example 352, 6-((3-((4-(difluoromethyl)-2-fluorobenzyl)oxy)azetidin-1-yl)carbonyl)-7-fluoro-2H-1,4-benzoxazin-3(4H)-one]
102	–	Cn1nccc1-c1ccc(OCC2CN(C(=O)c3cc4c(cc3F)OCC(=O)N4)C2)c(F)c1 [Example 254, 7-fluoro-6-((3-((2-fluoro-4-(1-methyl-1H-pyrazol-5-yl)phenoxy)methyl)azetidin-1-yl)carbonyl)-2H-1,4-benzoxazin-3(4H)-one]
103	–	CC(Oc1cc(F)ccc1F)C1CN(C(=O)c2cc3c(cc2F)OCC(=O)N3)C1 (centres unmarked) [Example 303, 6-((3-(1-(2,5-difluorophenoxy)ethyl)azetidin-1-yl)carbonyl)-7-fluoro-2H-1,4-benzoxazin-3(4H)-one]
101	–	O=C1COc2cc(F)c(C(=O)N3CC(COc4ccc(-c5ccnc(Cl)c5)cc4F)C3)cc2N1 [Example 241, 6-((3-((4-(2-chloropyridin-4-yl)-2-fluorophenoxy)methyl)azetidin-1-yl)carbonyl)-7-fluoro-2H-1,4-benzoxazin-3(4H)-one]
102	–	COc1ccc(COC2CN(C(=O)c3cc4c(cc3F)OCC(=O)N4)C2)c(Cl)c1 [Example 347, 6-((3-((2-chloro-4-methoxybenzyl)oxy)azetidin-1-yl)carbonyl)-7-fluoro-2H-1,4-benzoxazin-3(4H)-one]
101	–	O=C1COc2cc(F)c(C(=O)N3CC(OCc4ccc5c(c4)CCCC5)C3)cc2N1 [Example 346, 7-fluoro-6-((3-(5,6,7,8-tetrahydronaphthalen-2-ylmethoxy)azetidin-1-yl)carbonyl)-2H-1,4-benzoxazin-3(4H)-one]
100	–	O=C1COc2cc(F)c(C(=O)N3CC(OCc4cccc(OC(F)F)c4)C3)cc2N1 [Example 340]
98	–	N#Cc1cccc(COC2CN(C(=O)c3cc4c(cc3F)OCC(=O)N4)C2)c1 [Example 334, 3-(((1-((7-fluoro-3-oxo-3,4-dihydro-2H-1,4-benzoxazin-6-yl)carbonyl)azetidin-3-yl)oxy)methyl) benzonitrile]
100	–	O=C1COc2cc(F)c(C(=O)N3CC(COCc4ccc5scnc5c4)C3)cc2N1 [Example 272, 6-((3-((1,3-benzothiazol-5-ylmethoxy)methyl)azetidin-1-yl)carbonyl)-7-fluoro-2H-1,4-benzoxazin-3(4H)-one]
100	–	CCc1ncccc1-c1ccc(OCC2CN(C(=O)c3cc4c(cc3F)OCC(=O)N4)C2)c(F)c1 [Example 233, 6-((3-((4-(2-ethylpyridin-3-yl)-2-fluorophenoxy)methyl)azetidin-1-yl)carbonyl)-7-fluoro-2H-1,4-benzoxazin-3(4H)-one]

The next lines start with the compound.

SMILES	inhibition at 10 µM [%]	% inhibition (10 μM) (10 µM) [%]
O=C1COc2c(F)cc(C(=O)N3CCC(COc4ccc(F)cc4Cl)CC3)cc2N1 [Example 32, 6-((4-((2-chloro-4-fluorophenoxy)methyl)piperidin-1-yl)carbonyl)-8-fluoro-2H-1,4-benzoxazin-3(4H)-one]	99	–
CC1(C)Cc2cccc(OCC3CN(C(=O)c4cc5c(cc4F)OCC(=O)N5)C3)c2O1 [Example 103, 6-((3-(((2,2-dimethyl-2,3-dihydro-1-benzofuran-7-yl)oxy)methyl)azetidin-1-yl)carbonyl)-7-fluoro-2H-1,4-benzoxazin-3(4H)-one]	102	–
Cc1cc(-c2cc(Cl)ccc2OCC2CN(C(=O)c3cc4c(cc3F)OCC(=O)N4)C2)nn1C [Example 217, 6-((3-((4-chloro-2-(1,5-dimethyl-1H-pyrazol-3-yl)phenoxy)methyl)azetidin-1-yl)carbonyl)-7-fluoro-2H-1,4-benzoxazin-3(4H)-one]	104	–
CC(C)Cn1cc(-c2cc(Cl)ccc2OCC2CN(C(=O)c3cc4c(cc3F)OCC(=O)N4)C2)cn1 [Example 224, 6-((3-((4-chloro-2-(1-isobutyl-1H-pyrazol-4-yl)phenoxy)methyl)azetidin-1-yl)carbonyl)-7-fluoro-2H-1,4-benzoxazin-3(4H)-one]	103	–
O=C1COc2cc(F)c(C(=O)N3CC(COc4ccc(Cl)cc4-c4ccnc(Cl)c4)C3)cc2N1 [Example 208, 6-((3-((4-chloro-2-(2-chloropyridin-4-yl)phenoxy)methyl)azetidin-1-yl)carbonyl)-7-fluoro-2H-1,4-benzoxazin-3(4H)-one]	98	–
O=C1COc2cc(F)c(C(=O)N3CC(COc4ccc(C(F)(F)F)cc4F)C3)cc2N1 [Example 188, 7-fluoro-6-((3-((2-fluoro-4-(trifluoromethyl)phenoxy)methyl)azetidin-1-yl)carbonyl)-2H-1,4-benzoxazin-3(4H)-one]	97	–
O=C1COc2ccc(C(=O)N3CCC(COc4ccc(Cl)c(Cl)c4)CC3)cc2N1 [Example 43, 6-((4-((3,4-dichlorophenoxy)methyl)piperidin-1-yl)carbonyl)-2H-1,4-benzoxazin-3(4H)-one]	100	–
O=C1COc2cc(F)c(C(=O)N3CC(COc4ccc(Cl)c(F)c4)C3)cc2N1 [Example 130, 6-((3-((4-chloro-3-fluorophenoxy)methyl)azetidin-1-yl)carbonyl)-7-fluoro-2H-1,4-benzoxazin-3(4H)-one]	103	–
O=C1COc2cc(F)c(C(=O)N3CCC(COc4cccc(-c5ccccc5)c4)CC3)cc2N1 [Example 150, 6-((4-((biphenyl-3-yloxy)methyl)piperidin-1-yl)carbonyl)-7-fluoro-2H-1,4-benzoxazin-3(4H)-one]	100	–
O=C1COc2ccc(C(=O)N3CCC(COc4ccc(Cl)nc4Cl)CC3)cc2N1 [Example 41, 6-((4-(((2,6-dichloropyridin-3-yl)oxy)methyl)piperidin-1-yl)carbonyl)-2H-1,4-benzoxazin-3(4H)-one]	103	–
O=C1COc2ncc(C(=O)N3CCC(COc4ccccc4Cl)CC3)cc2N1 [Example 7, 7-((4-((2-chlorophenoxy)methyl)piperidin-1-yl)carbonyl)-1H-pyrido[2,3-b][1,4]oxazin-2(3H)-one]	100	–
O=C1COc2cc(F)c(C(=O)N3CC(COc4ccc5nccn5c4-c4ccc(F)cc4)C3)cc2N1 [Example 181, 7-fluoro-6-((3-(((5-(4-fluorophenyl)imidazo[1,2-a]pyridin-6-yl)oxy)methyl)azetidin-1-yl)carbonyl)-2H-1,4-benzoxazin-3(4H)-one]	99	–
CC(C)(O)c1ccc(OCC2CCN(C(=O)c3cc4c(cc3F)OCC(=O)N4)CC2)c(Cl)c1 [Example 90, 6-((4-((2-chloro-4-(2-hydroxypropan-2-yl)phenoxy)methyl)piperidin-1-yl)carbonyl)-7-fluoro-2H-1,4-benzoxazin-3(4H)-one]	98	–
O=C1COc2cc(F)c(C(=O)N3CCC(COc4ccc(F)cc4Cl)CC3)cc2N1 [Example 66, 6-((4-((2-chloro-4-fluorophenoxy)methyl)piperidin-1-yl)carbonyl)-7-fluoro-2H-1,4-benzoxazin-3(4H)-one]	104	–
O=C1COc2cc(F)c(C(=O)N3CC(COc4ccc(F)c(F)c4)C3)cc2N1 [Example 158, 6-((3-((3,4-difluorophenoxy)methyl)azetidin-1-yl)carbonyl)-7-fluoro-2H-1,4-benzoxazin-3(4H)-one]	103	–
N#Cc1cc(Cl)ccc1OCC1CCN(C(=O)c2cc3c(cc2F)OCC(=O)N3)CC1 [Example 72, 5-chloro-2-((1-((7-fluoro-3-oxo-3,4-dihydro-2H-1,4-benzoxazin-6-yl)carbonyl)piperidin-4-yl)methoxy)benzonitrile]	100	–
Cc1cc(C)c(OCC2CCN(C(=O)c3ccc4c(c3)NC(=O)CO4)CC2)cn1 [Example 39]	100	–
O=C1COc2ccc(C(=O)N3CCC(COc4cccc5ccccc45)CC3)cc2N1 [Example 59, 6-((4-((1-naphthyloxy)methyl)piperidin-1-yl)carbonyl)-2H-1,4-benzoxazin-3(4H)-one]	102	–
O=C1COc2cc(F)c(C(=O)N3CC(COc4ccc(OC(F)(F)F)cc4)C3)cc2N1 [Example 143, 7-fluoro-6-((3-((4-(trifluoromethoxy)phenoxy)methyl)azetidin-1-yl)carbonyl)-2H-1,4-benzoxazin-3(4H)-one]	100	–
O=C1COc2ccc(C(=O)N3CCC(COc4cc(F)ccc4Cl)CC3)cc2N1 [Example 31, 6-((4-((2-chloro-5-fluorophenoxy)methyl)piperidin-1-yl)carbonyl)-2H-1,4-benzoxazin-3(4H)-one]	97	–
